Assay results from ChEMBL document CHEMBL1141739, “Donnaienin, a New Acetogenin Bearing a Hydroxylated Tetrahydrofuran Ring” (J Nat Prod, 1998).
Converted amounts (≈) assume the structure as drawn.

Columns and labels:
Type in all cases: functional, cell-based
KB = experiment: Cytotoxicity against human KB cells after 5 days by MTT method; conditions: 120 h
HCT-8 = experiment: Cytotoxicity against human HCT8 cells after 5 days by MTT method; conditions: HCT-8, 120 h
[1] = Cytotoxicity against human Bel cells after 5 days by MTT method; conditions: 120 h

For CCCCCCCCCCCCCC[C@H](O)[C@@H]1C[C@@H](O)[C@@H]([C@@H](O)CC[C@@H](O)CCCCC[C@@H](O)CC2=C[C@H](C)OC2=O)O1 [DONNAIENIN], the IC50 (KB) was greater than 10 µg/mL, the IC50 (HCT-8) was greater than 10 µg/mL and the IC50 [1] was 6.7 µg/mL (≈ 10.9 µM).
